Tests used:
Experiment in all cases: relative viability (nuclei count vs DMSO), 5 days (fraction); higher = more cells survive
17-AAG + AZD7762 = compound: C=CCNC1=C2C[C@@H](C)C[C@H](OC)[C@H](O)[C@@H](C)/C=C(\C)[C@H](OC(N)=O)[C@@H](OC)/C=C\C=C(/C)C(=O)NC(=CC1=O)C2=O [17-AAG] + NC(=O)Nc1cc(-c2cccc(F)c2)sc1C(=O)N[C@H]1CCCNC1 [AZD7762] (partner 0.2 µM)
Outline: (§1)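 Dosing by pin tool came one day after lung cancer cell lines were seeded in 1536-well plates, using either one drug or a fixed anchor-drug dose plus five library-drug doses (not always all listed) in √10 steps. After 5 days, nuclei were counted on 4× images. Relative viability is treated-well nuclei count divided by vehicle-well nuclei count, and values are medians of duplicate plates.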

17-AAG + Tozasertib = compound: C=CCNC1=C2C[C@@H](C)C[C@H](OC)[C@H](O)[C@@H](C)/C=C(\C)[C@H](OC(N)=O)[C@@H](OC)/C=C\C=C(/C)C(=O)NC(=CC1=O)C2=O [17-AAG] + Cc1cc(Nc2cc(N3CCN(C)CC3)nc(Sc3ccc(NC(=O)C4CC4)cc3)n2)n[nH]1 [Tozasertib] (partner 0.1 µM)
Outline: as §1

17-AAG + Bortezomib = compound: C=CCNC1=C2C[C@@H](C)C[C@H](OC)[C@H](O)[C@@H](C)/C=C(\C)[C@H](OC(N)=O)[C@@H](OC)/C=C\C=C(/C)C(=O)NC(=CC1=O)C2=O [17-AAG] + CC(C)C[C@H](NC(=O)[C@H](Cc1ccccc1)NC(=O)c1cnccn1)B(O)O [Bortezomib] (partner 0.002 µM)
Outline: as §1

17-AAG + Decitabine = compound: C=CCNC1=C2C[C@@H](C)C[C@H](OC)[C@H](O)[C@@H](C)/C=C(\C)[C@H](OC(N)=O)[C@@H](OC)/C=C\C=C(/C)C(=O)NC(=CC1=O)C2=O [17-AAG] + Nc1ncn([C@H]2C[C@H](O)[C@@H](CO)O2)c(=O)n1 [Decitabine] (partner 2 µM)
Outline: as §1

Cell Line | relative viability (17-AAG + AZD7762; first compound 0.00128 µM) | relative viability (17-AAG + AZD7762; first compound 0.004048 µM) | relative viability (17-AAG + AZD7762; first compound 0.0128 µM) | relative viability (17-AAG + AZD7762; first compound 0.04048 µM) | relative viability (17-AAG + AZD7762; first compound 0.128 µM) | relative viability (17-AAG + Tozasertib; first compound 0.00128 µM) | relative viability (17-AAG + Tozasertib; first compound 0.004048 µM) | relative viability (17-AAG + Tozasertib; first compound 0.0128 µM) | relative viability (17-AAG + Tozasertib; first compound 0.04048 µM) | relative viability (17-AAG + Tozasertib; first compound 0.128 µM) | relative viability (17-AAG + Bortezomib; first compound 0.00128 µM) | relative viability (17-AAG + Bortezomib; first compound 0.004048 µM) | relative viability (17-AAG + Bortezomib; first compound 0.0128 µM) | relative viability (17-AAG + Bortezomib; first compound 0.04048 µM) | relative viability (17-AAG + Bortezomib; first compound 0.128 µM) | relative viability (17-AAG + Decitabine; first compound 0.00128 µM) | relative viability (17-AAG + Decitabine; first compound 0.004048 µM) | relative viability (17-AAG + Decitabine; first compound 0.0128 µM) | relative viability (17-AAG + Decitabine; first compound 0.04048 µM) | relative viability (17-AAG + Decitabine; first compound 0.128 µM)
LCLC-97TM1 | 0.281 | 0.359 | 0.278 | 0.21 | 0.0815 | 0.213 | 0.268 | 0.268 | 0.251 | 0.21 | 0.431 | 0.614 | 0.249 | 0.125 | 0.0923 | 0.197 | 0.21 | 0.255 | 0.259 | 0.185
HARA | 0.425 | 0.295 | 0.209 | 0.251 | 0.18 | 0.0961 | 0.125 | 0.135 | 0.148 | 0.132 | 1.08 | 1.11 | 1.14 | 1.14 | 0.187 | 0.517 | 0.57 | 0.617 | 0.569 | 0.232
HCC-78 | 0.599 | 0.821 | 0.666 | 0.155 | 0.352 | 0.443 | 0.401 | 0.418 | 0.637 | 0.223 | 0.538 | 0.482 | 0.539 | 0.368 | 0.6 | 0.511 | 0.841 | 0.695 | 0.465 | 0.369
NCI-H1666 | 0.725 | 0.902 | 0.531 | 0.35 | 0.292 | 0.589 | 0.599 | 0.46 | 0.343 | 0.294 | 0.78 | 0.687 | 0.244 | 0.228 | 0.171 | 0.74 | 0.804 | 0.641 | 0.364 | 0.363
NCI-H2405 | 0.741 | 0.525 | 0.23 | 0.153 | 0.143 | 0.776 | 0.765 | 0.451 | 0.28 | 0.156 | 1.04 | 1.03 | 1 | 0.675 | 0.217 | 0.714 | 0.675 | 0.424 | 0.242 | 0.189
PC-14 | 0.288 | 0.293 | 0.144 | 0.0832 | 0.129 | 0.55 | 0.472 | 0.27 | 0.067 | 0.0544 | 0.915 | 0.822 | 0.808 | 0.12 | 0.101 | 0.183 | 0.199 | 0.097 | 0.103 | 0.0891
NCI-H2023 |  |  |  |  |  | 0.51 | 0.351 | 0.102 | 0.0765 | 0.0654 | 0.886 | 0.878 | 0.138 | 0.0901 | 0.0776 | 0.178 | 0.168 | 0.0829 | 0.0643 | 0.0587
201T | 0.626 | 0.543 | 0.459 | 0.258 | 0.261 | 0.988 | 0.915 | 0.872 | 0.891 | 0.388 | 1.14 | 1.12 | 1.03 | 1.05 | 0.649 | 0.842 | 0.838 | 0.811 | 0.804 | 0.71
NCI-H1915 | 0.587 | 0.719 | 0.219 | 0.12 | 0.0582 | 0.455 | 0.442 | 0.401 | 0.392 | 0.111 | 0.846 | 1.02 | 0.85 | 0.884 | 0.118 | 0.259 | 0.271 | 0.263 | 0.25 | 0.0807
NCI-H2009 |  |  |  |  |  | 0.727 | 0.72 | 0.756 | 0.65 | 0.259 | 0.974 | 0.995 | 0.917 | 0.815 | 0.142 | 0.421 | 0.398 | 0.342 | 0.265 | 0.134
BEN | 0.692 | 0.891 | 0.648 | 0.5 | 0.392 | 0.529 | 0.625 | 0.473 | 0.738 | 0.472 | 0.917 | 1.14 | 0.997 | 0.64 | 0.232 | 0.613 | 0.712 | 0.759 | 0.446 | 0.288
PC-3 [JPC-3] | 0.776 | 0.8 | 0.888 | 0.541 | 0.59 | 0.894 | 0.847 | 0.922 |  | 0.839 | 0.824 | 0.848 | 0.814 |  | 0.707 | 0.829 | 0.816 | 0.911 | 0.451 | 0.658
SK-MES-1 |  |  |  |  |  | 0.872 | 0.851 | 0.168 | 0.164 | 0.143 |  |  |  |  |  | 0.405 | 0.362 | 0.197 | 0.145 | 0.141
NCI-H838 | 0.978 | 0.849 | 0.669 | 0.633 | 0.604 | 0.315 | 0.309 | 0.161 | 0.135 | 0.134 | 0.962 | 0.653 | 0.124 | 0.136 | 0.0816 | 0.405 | 0.45 | 0.217 | 0.195 | 0.2
LK-2 | 0.481 | 0.522 | 0.149 | 0.115 | 0.0799 | 0.161 | 0.174 | 0.153 | 0.227 | 0.172 |  |  |  |  |  | 0.269 | 0.37 | 0.187 | 0.0931 | 0.0957
NCI-H2342 | 0.441 | 0.739 | 0.468 | 0.447 | 0.359 | 0.442 | 0.437 | 0.518 | 0.493 | 0.306 |  |  |  |  |  | 0.735 | 0.686 | 0.739 | 0.77 | 0.619
NCI-H1944 | 0.497 | 0.488 | 0.237 | 0.155 | 0.138 | 0.239 | 0.248 | 0.219 | 0.213 | 0.138 |  |  |  |  |  | 0.418 | 0.445 | 0.441 | 0.357 | 0.163

Source: the supplement of paper PMC10307832
